Here are results for five compounds from ChEMBL document CHEMBL4602709 (ACS Med Chem Lett, 2020).

One series deals with Cytochrome P450 3A4 (Homo sapiens, UniProt P08684). Kind of series: Inhibition of human recombinant CYP3A4 expressed in insect cell microsomes in presence of NADPH by fluorescence assay. Type of series: ADME.
The target in series [1] is Voltage-gated inwardly rectifying potassium channel KCNH2 (Homo sapiens, UniProt Q12809). The series is described as follows: Inhibition of human ERG incubated for 4 hrs by competitive fluorescence tracer binding based assay.
Series [2] concerns the target Tyrosine-protein kinase ABL1 (Homo sapiens, UniProt P00519). Kind of series: Inhibition of human ABL1 assessed as residual activity using EAIYAAPFAKKK as substrate by [gamma-33P]-ATP assay.
Series [3] in a line: Metabolic stability in human liver microsomes assessed as half life at 3 uM measured up to 30 mins in presence of NADPH by […] analysis. Format: ADME, Microsome.
Series [4] is described as follows: Metabolic stability in mouse liver microsomes assessed as half life at 3 uM measured up to 30 mins in presence of NADPH by […] analysis. Format: ADME, Microsome.
The target of series [5] is T1, Discoidin domain-containing receptor 2 (Homo sapiens) (UniProt Q16832).
T1 sequence (whole entry): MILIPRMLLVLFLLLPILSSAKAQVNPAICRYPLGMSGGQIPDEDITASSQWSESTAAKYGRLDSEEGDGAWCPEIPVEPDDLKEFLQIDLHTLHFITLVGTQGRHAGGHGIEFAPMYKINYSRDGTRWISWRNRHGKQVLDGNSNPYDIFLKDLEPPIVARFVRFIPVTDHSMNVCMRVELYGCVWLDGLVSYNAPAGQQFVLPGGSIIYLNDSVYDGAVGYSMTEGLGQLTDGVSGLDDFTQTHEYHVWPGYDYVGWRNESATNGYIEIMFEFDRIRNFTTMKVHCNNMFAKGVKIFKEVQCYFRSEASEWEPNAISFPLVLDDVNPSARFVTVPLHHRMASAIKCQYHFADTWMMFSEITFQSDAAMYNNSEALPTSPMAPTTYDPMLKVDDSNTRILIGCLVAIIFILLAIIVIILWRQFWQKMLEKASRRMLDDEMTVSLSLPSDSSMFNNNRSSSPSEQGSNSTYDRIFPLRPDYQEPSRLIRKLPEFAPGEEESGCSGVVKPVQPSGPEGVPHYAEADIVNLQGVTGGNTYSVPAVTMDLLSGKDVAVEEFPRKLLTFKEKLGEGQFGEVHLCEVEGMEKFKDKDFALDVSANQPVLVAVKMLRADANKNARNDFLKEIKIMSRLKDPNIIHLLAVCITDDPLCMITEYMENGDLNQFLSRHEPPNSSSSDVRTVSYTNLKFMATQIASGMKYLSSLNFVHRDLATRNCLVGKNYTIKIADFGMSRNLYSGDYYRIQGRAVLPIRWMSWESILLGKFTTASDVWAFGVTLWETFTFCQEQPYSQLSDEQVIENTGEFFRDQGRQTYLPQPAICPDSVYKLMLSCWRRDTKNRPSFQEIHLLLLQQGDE
The series is described as follows: Inhibition of DDR2 (unknown origin) assessed as residual activity at 10 uM incubated for 5 mins in presence of [gamma-33ATP] by scintillation counting based radiometry assay relative to control.

The target in series [6] is Proto-oncogene tyrosine-protein kinase Src (Homo sapiens, UniProt P12931). Kind of series: Inhibition of SRC (unknown origin) assessed as residual activity at 10 uM incubated for 5 mins in presence of [gamma-33ATP] by scintillation counting based radiometry assay relative to control.
Series [7] concerns the target T2, Ephrin type-B receptor 2 (Homo sapiens) (UniProt P29323).
T2 sequence (whole entry): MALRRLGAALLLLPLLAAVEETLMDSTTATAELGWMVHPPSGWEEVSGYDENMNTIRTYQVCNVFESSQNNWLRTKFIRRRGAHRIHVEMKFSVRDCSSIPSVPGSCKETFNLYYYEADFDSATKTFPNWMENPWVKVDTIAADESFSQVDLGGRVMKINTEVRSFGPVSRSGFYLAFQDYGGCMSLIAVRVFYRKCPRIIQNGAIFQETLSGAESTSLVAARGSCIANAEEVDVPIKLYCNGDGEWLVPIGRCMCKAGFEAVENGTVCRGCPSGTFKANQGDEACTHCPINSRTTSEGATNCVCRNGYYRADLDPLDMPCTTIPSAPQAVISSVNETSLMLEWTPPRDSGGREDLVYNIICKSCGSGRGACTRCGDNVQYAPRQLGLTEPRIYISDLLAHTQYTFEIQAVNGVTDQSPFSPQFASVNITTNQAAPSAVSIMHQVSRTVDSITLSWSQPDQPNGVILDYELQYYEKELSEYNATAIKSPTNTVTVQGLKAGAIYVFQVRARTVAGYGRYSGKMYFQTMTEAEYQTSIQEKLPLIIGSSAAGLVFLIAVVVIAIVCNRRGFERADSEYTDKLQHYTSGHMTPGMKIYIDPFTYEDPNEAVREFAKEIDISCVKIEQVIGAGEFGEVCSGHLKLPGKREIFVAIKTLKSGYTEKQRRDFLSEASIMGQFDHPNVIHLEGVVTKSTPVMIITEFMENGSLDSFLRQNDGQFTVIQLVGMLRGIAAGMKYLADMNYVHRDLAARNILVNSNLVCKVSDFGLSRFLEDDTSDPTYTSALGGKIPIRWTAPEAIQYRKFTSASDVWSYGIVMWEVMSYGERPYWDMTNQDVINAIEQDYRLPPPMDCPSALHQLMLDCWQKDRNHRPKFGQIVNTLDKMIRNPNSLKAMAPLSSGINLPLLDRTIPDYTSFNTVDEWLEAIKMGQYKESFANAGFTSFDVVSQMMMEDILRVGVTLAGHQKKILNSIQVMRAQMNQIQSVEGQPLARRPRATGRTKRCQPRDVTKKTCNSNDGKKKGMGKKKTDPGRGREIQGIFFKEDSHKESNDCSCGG
Kind of series: Inhibition of EPHB2 (unknown origin) assessed as residual activity at 10 uM incubated for 5 mins in presence of [gamma-33ATP] by scintillation counting based radiometry assay relative to control.

Series [8] deals with Tyrosine-protein kinase Lck (Homo sapiens, UniProt P06239). The series is described as follows: Inhibition of LCK (unknown origin) assessed as residual activity at 10 uM incubated for 5 mins in presence of [gamma-33ATP] by scintillation counting based radiometry assay relative to control.
Series [9] concerns the target Serine/threonine-protein kinase Nek6 (Homo sapiens, UniProt Q9HC98). Kind of series: Inhibition of NEK6 (unknown origin) assessed as residual activity at 10 uM incubated for 5 mins in presence of [gamma-33ATP] by scintillation counting based radiometry assay relative to control.
The species entered for another series is Homo sapiens. Kind of series: Inhibition of VEGFR (unknown origin) assessed as residual activity at 10 uM incubated for 5 mins in presence of [gamma-33ATP] by scintillation counting based radiometry assay relative to control.
The target in series [10] is T3, Mitogen-activated protein kinase kinase kinase kinase 3 (Homo sapiens) (UniProt Q8IVH8).
T3 sequence (whole entry): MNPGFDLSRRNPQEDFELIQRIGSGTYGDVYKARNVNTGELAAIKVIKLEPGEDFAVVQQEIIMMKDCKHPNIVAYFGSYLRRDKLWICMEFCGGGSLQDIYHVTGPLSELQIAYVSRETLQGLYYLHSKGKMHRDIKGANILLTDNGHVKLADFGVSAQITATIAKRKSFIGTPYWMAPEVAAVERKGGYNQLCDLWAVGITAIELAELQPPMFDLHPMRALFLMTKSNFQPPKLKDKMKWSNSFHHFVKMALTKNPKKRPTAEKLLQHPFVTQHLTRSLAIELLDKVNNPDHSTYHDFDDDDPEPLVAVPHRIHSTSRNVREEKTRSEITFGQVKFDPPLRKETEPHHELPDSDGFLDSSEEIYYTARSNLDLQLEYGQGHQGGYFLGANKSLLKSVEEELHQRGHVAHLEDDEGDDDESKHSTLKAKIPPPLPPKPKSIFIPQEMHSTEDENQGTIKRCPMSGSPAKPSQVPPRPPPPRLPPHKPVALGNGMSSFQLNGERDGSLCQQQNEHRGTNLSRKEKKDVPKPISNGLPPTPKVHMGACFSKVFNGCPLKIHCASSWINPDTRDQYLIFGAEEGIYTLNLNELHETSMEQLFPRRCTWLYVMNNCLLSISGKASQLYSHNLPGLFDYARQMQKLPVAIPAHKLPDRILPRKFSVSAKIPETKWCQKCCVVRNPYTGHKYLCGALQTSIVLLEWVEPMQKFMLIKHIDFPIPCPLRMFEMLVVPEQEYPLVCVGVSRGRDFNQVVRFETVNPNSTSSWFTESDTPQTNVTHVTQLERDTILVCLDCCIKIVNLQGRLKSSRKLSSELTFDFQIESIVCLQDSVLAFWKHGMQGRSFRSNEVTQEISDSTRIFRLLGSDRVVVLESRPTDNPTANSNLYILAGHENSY
Kind of series: Inhibition of MAP4K3 (unknown origin) assessed as residual activity at 10 uM incubated for 5 mins in presence of [gamma-33ATP] by scintillation counting based radiometry assay relative to control.

Sequence of Voltage-gated inwardly rectifying potassium channel KCNH2 (Q12809 whole entry): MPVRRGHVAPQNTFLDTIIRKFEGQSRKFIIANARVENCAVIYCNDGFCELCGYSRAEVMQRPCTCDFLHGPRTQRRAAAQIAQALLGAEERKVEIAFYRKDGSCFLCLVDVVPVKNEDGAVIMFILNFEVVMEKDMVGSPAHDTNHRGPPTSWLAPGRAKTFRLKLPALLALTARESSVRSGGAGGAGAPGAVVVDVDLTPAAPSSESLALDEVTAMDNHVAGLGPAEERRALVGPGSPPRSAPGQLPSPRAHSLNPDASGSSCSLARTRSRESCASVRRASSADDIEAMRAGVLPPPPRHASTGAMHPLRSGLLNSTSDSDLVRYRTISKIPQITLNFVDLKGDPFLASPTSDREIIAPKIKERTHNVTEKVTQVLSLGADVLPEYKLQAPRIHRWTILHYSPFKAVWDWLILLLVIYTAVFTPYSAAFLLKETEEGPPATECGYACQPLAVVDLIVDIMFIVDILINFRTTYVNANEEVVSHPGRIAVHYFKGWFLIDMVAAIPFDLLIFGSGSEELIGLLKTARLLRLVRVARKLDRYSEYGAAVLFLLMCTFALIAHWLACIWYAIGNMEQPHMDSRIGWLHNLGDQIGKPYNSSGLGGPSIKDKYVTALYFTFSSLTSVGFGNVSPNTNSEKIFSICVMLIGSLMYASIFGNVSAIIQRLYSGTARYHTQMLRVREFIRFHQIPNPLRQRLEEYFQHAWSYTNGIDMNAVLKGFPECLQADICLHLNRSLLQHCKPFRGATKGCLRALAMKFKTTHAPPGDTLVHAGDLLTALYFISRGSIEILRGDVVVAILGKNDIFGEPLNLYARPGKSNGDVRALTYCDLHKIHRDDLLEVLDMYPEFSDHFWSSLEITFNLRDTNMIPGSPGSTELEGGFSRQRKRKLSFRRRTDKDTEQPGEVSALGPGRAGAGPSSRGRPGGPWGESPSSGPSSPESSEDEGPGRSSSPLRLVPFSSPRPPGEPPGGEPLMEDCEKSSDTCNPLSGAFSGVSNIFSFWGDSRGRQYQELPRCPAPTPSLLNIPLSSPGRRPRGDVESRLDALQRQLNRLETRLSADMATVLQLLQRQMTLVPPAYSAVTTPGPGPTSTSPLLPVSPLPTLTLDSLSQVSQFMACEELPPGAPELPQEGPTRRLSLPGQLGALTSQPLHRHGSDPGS
Sequence of Tyrosine-protein kinase ABL1 (P00519 whole entry): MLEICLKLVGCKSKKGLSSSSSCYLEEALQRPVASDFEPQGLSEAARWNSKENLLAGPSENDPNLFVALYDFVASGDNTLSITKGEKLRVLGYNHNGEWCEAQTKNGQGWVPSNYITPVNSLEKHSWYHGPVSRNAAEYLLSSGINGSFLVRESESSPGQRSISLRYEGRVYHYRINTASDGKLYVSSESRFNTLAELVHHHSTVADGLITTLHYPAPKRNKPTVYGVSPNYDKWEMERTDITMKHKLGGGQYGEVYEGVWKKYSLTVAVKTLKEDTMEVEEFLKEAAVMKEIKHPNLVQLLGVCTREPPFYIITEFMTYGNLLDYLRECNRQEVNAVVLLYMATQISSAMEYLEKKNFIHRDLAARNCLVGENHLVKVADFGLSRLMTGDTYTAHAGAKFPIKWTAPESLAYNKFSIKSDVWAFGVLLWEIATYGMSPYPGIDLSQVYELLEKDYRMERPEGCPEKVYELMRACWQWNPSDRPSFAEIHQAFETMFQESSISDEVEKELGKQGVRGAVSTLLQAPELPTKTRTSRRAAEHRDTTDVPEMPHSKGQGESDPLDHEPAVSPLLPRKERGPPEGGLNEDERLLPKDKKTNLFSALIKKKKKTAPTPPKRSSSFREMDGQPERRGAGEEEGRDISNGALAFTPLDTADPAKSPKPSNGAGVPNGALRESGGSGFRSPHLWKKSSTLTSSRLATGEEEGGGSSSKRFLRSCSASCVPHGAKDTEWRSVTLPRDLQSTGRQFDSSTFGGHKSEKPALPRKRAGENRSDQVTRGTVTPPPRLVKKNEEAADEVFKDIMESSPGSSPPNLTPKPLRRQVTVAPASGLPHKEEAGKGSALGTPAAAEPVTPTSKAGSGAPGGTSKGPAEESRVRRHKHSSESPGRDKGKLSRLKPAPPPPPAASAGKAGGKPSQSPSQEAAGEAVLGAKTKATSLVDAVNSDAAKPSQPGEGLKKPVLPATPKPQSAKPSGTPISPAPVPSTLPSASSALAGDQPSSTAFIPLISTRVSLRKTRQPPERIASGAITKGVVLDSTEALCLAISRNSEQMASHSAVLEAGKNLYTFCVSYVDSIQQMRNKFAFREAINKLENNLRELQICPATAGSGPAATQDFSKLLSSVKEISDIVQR
Sequence of Cytochrome P450 3A4 (P08684 whole entry): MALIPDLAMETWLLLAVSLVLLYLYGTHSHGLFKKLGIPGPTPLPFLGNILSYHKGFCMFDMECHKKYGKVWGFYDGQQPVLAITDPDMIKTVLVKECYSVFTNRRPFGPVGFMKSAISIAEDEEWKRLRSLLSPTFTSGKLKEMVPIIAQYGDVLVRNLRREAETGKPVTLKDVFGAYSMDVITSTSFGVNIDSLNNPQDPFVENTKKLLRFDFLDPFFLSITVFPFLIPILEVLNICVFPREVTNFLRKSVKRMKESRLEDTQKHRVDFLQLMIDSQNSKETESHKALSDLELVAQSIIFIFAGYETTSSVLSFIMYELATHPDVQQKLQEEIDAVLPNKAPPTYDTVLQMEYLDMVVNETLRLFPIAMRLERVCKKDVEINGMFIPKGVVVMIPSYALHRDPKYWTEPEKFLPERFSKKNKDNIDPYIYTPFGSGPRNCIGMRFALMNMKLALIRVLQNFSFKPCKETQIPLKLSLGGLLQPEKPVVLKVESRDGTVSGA
Sequence of Proto-oncogene tyrosine-protein kinase Src (P12931 2-536 limits assumed): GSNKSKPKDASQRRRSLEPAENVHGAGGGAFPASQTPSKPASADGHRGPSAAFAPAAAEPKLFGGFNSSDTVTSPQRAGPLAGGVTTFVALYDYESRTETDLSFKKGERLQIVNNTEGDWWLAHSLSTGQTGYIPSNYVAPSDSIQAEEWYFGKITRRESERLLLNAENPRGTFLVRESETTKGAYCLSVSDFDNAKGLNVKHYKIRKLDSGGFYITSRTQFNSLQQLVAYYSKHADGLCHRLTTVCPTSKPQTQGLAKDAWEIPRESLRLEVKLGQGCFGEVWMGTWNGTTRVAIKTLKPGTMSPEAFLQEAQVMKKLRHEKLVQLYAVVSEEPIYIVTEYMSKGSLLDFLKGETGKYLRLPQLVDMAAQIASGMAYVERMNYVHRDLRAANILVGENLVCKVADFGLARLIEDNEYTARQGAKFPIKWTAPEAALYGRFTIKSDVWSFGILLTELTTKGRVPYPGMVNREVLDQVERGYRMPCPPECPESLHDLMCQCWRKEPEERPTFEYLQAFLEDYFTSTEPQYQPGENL
Sequence of Serine/threonine-protein kinase Nek6 (Q9HC98 whole entry): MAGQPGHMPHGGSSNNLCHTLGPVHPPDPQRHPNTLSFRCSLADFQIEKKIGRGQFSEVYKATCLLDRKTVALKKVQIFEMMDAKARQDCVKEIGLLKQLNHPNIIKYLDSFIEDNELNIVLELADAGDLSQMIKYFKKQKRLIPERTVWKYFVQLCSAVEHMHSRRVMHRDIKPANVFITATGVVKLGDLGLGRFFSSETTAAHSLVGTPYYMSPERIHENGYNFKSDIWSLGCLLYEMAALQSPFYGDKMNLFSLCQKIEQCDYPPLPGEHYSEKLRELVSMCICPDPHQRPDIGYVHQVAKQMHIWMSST
Sequence of Tyrosine-protein kinase Lck (P06239 2-509 limits assumed): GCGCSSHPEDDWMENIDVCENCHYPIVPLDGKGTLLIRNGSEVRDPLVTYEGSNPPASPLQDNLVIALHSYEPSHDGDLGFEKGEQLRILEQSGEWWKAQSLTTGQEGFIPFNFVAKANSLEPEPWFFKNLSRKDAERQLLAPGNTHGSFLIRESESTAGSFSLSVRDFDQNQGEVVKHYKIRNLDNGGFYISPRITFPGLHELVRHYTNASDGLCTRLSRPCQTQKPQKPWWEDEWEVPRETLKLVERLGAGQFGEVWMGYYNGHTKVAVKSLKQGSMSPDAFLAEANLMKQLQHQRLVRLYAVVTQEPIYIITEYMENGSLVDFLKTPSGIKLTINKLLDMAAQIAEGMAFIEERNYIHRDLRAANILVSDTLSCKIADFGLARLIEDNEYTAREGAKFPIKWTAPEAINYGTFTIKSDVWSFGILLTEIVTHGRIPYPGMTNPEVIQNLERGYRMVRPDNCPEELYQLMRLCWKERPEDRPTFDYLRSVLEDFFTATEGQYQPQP

Turning to `COCCN1CCN(Cc2ccc(NC(=O)c3ccc(C)c(C#Cc4cnc5cccnn45)c3)cc2C2CC2)CC1`, the values for the IC50 (at Cytochrome P450 3A4; in series [1]) were 13500 nM and 80 nM, respectively.
Regarding `Cc1ccc(C(=O)Nc2ccc(CN3CCN(CCO)CC3)c(Cl)c2)cc1C#Cc1cnc2cccnn12`, the IC50 in series [2] was 0.39 nM; at Cytochrome P450 3A4, 13400 nM; in series [1], 100 nM.
Consider `Cc1ccc(C(=O)Nc2ccc(CN3CCN(CCO)CC3)c(C3CC3)c2)cc1C#Cc1cnc2cccnn12`, for which the IC50 worked out at 0.3 nM in [2] and 340 nM in series [1].
As for `Cc1ccc(C(=O)Nc2ccc(CN3CCN(C)CC3)c(C(F)(F)F)c2)cc1C#Cc1cnc2cccnn12` [PONATINIB], the half-life at 3 µM in series [3] came to 3.04 h; in [4], 0.532 h. Also, the Activity in [5] is 3%; in [6], 11%; in series [7] it was 2%; in [8], 29%; in [9] it was 52%; in the series listed under Homo sapiens, 28%. The Activity in [10] turned out to be 2%.
Regarding `Cc1ccc(C(=O)Nc2ccc(CN3Cc4ccc(O)cc4C3)c(Cl)c2)cc1C#Cc1cnc2cccnn12`, the IC50 in series [2] is above 30 nM. Moreover, the half-life at 3 µM in series [3] is 2.63 h; in [4], 0.441 h.
